The values below come from patent US20240302379A1, “METHODS FOR IDENTIFYING AND MONITORING INTERACTIONS OF PROTEIN WITH LIGAND” (Agency for Science, Technology and Research, priority 2020, published 2024).

Molecules are shown by their SMILES. “Also recorded” adds a separate entry of the source.

For one experiment, the target named is T1, DHFR-HiBiT (Homo sapiens, UniProt P00374).
T1 construct: expressed in transfected cells; host or cells: Flp-In T-Rex HEK293
T1 sequence (P00374 1-187): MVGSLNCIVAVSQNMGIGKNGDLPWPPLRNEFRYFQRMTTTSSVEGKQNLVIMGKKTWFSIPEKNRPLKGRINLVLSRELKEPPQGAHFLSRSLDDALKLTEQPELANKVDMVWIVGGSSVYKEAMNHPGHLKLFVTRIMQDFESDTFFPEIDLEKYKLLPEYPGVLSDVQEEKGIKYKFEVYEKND
The experiment is described as follows: UCEP-Screen in HEK293 DHFR-HiBiT reporter cells (bioluminescence). The format is binding. Particulars: 20 μM, 10 minutes.

For a further experiment, the target named is T2, HER2-HiBIT (Homo sapiens, UniProt P04626).
T2 construct: expressed in transfected cells; host or cells: reporter cells
T2 sequence (P04626 23-1255): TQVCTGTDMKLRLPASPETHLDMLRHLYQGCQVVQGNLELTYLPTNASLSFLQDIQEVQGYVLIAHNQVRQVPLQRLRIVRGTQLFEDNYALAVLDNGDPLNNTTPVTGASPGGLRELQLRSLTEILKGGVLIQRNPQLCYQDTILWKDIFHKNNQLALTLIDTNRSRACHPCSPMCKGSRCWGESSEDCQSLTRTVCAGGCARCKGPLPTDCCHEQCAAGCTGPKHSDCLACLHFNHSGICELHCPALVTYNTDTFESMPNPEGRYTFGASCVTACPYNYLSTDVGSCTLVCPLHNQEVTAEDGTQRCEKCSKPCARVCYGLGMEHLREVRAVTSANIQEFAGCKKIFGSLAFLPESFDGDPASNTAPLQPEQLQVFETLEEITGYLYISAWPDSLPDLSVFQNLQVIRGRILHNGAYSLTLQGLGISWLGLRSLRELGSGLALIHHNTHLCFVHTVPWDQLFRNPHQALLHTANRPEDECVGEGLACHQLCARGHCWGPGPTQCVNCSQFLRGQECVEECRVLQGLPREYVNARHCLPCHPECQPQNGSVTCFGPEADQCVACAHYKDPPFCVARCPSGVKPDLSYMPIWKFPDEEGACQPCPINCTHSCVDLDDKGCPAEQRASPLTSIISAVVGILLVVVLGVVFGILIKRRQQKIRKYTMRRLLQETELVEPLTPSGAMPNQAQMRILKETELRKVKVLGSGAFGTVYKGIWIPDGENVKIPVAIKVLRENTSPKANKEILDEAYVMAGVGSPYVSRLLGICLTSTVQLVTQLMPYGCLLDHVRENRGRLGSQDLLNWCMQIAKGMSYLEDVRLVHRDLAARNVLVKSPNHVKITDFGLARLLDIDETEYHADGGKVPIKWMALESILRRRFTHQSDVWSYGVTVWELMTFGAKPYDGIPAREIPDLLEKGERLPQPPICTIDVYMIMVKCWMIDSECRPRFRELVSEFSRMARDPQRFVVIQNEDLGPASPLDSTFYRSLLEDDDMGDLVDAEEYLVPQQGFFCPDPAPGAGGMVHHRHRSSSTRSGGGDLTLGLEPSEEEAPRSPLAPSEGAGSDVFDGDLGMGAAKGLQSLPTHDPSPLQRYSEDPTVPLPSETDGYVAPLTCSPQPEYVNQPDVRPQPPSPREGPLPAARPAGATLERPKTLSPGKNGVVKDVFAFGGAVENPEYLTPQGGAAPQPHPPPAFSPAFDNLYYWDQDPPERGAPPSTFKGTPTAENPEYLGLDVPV
The experiment is described as follows: UCEP in HER2-HiBIT reporter cells with 1% CHAPS (bioluminescence). The format is binding. Particulars: 3M to 5M urea. An excerpt: In the Flp-In T-Rex system, modified pENTR1A plasmids, entry vectors, are used to clone protein of interest. pENTR1A plasmids are modified to include thirty-three nucleotide sequences of HiBiT for tagging protein of interest at either N- or C terminus. A HiBiT-tagged protein of interest is transferred to one of gateway destination vectors, pFRT/TO/DEST or pEF5/FRT/V5-DEST, via gateway LR reaction. Flp-In T-Rex HEK293 cells are transfected with the final destination vector that include HiBiT-tagged gene of interest and pOG44 vector expressing Flp recombinase. Cells are selected with Hygromycin and Blasticidin to remove untransformed cells. In the CRISPR system, the ribonucleoprotein complex including Cas9, crRNA, tracrRNA is formed in vitro. Cells are electroporated to deliver the Cas9 ribonucleoprotein complex along with a single-stranded donor oligonucleotide. Next day, cells are sorted as a single cell into a transparent 96-well tissue culture microplate and incubated until they became confluent.
UCEP conditions such as denaturant concentration and dilution factor should be optimized for each target before performing any HTS. Here, Flp-In T-Rex cells were used for assay development. Cells were seeded into the 96-well clear bottom white microplate in growth medium and the expression of HiBiT-tagged protein was induced with tetracycline. […] Bioluminescence was then measured. […]

In the next experiment the test system is K562 living cells. In words: UCEP-ID MR experiment (proteome-wide target deconvolution by quantitative LC-MS/MS). Particulars: K562, 10 μM, 10 minutes.

Procedure for DHFR-HiBiT: UCEP conditions such as denaturant concentration and dilution factor should be optimized for each target before performing any HTS. Here, Flp-In T-Rex cells were used for assay development. Cells were seeded into the 96-well clear bottom white microplate in growth medium and the expression of HiBiT-tagged protein was induced with tetracycline. Cells are treated with chemical of interest for specific duration, before incubation in PBS containing different concentrations of urea. Urea was then diluted with PBS. HiBiT lytic detection buffer containing LgBiT and substrate was then added. Bioluminescence was then measured.

Take `CNC(=O)c1ccc(N2C(=S)N(c3ccc(C#N)c(C(F)(F)F)c3)C(=O)C2(C)C)cc1F` [Enzalutamide]: on DHFR-HiBiT, the “DHFR-HiBiT protein stabilization upon UCEP” value is listed as “did not significantly change”.

With `Cc1cc(Nc2ncnc3ccc(NC4=NC(C)(C)CO4)cc23)ccc1Oc1ccn2ncnc2c1` [Tucatinib], the “Stabilization of HER2-HiBIT (fold change of bioluminescence vs control)” value at HER2-HiBIT is reported as “maximum stabilization of HER2 at 3M urea; also recorded: increased stability”.

With `CN(Cc1cnc2nc(N)nc(N)c2n1)c1ccc(C(=O)N[C@@H](CCC(=O)O)C(=O)O)cc1` [MTX, methotrexate], in the experiment on K562 living cells, the “Binding targets identified by UCEP-ID” value is “DHFR”.

Regarding `CN[C@@H]1C[C@H]2O[C@@](C)([C@@H]1OC)n1c3ccccc3c3c4c(c5c6ccccc6n2c5c31)C(=O)NC4` [Staurosporine], the “DHFR-HiBiT protein stabilization upon UCEP” value on DHFR-HiBiT is “did not significantly change”.
